In this experiment the test system is normal breast epithelium. In words: Normal breast xenografts: proliferation (Ki67 LI) and apoptosis (AI) (Example 2). It counts as in vivo, human.

The structures appear in SMILES notation. Marks after values point to notes of the source that are not given here.

As to `COc1cc2ncnc(Nc3ccc(F)c(Cl)c3)c2cc1OCCCN1CCOCC1` [ZD1839, N-(3-chloro-4-fluorophenyl)-7-methoxy-6-(3-morpholinopropoxy)quinazolin-4-amine], the “Median LI/AI, Normal breast” value (Day 21, ratio of cell turnover) is recorded as 3.9***. Also, for the setting “normal breast, Day 28, 10-200 mg/kg”, the “Dose response of epithelial proliferation (Ki67 LI), FIG. 2” value was “not in normal breast”.

These data come from patent publication US7553815B1, “Therapeutic use” (priority 1999, dated 2009).
